Data as given in paper PMC12610539, “Determination of Gnetol in Murine Biological Matrices by Liquid Chromatography–Tandem Mass Spectrometry (LC–MS/MS): Application in a Biodistribution Study” (International Journal of Molecular Sciences, 2025).
Like-named read-outs stand apart in the source and are kept apart here.

Columns and labels:
[1] = system: SARS-CoV-2 main protease; set-up: method as in PMID 39653224; details: cited from earlier work
[2] = system: tyrosinase; details: cited from earlier work
[3] = Stability of stock solutions (1 mg/mL in DMSO); type: physicochemical
Protocol: (§1) Stock solutions of gnetol and resveratrol-^13C6 (IS) were prepared in DMSO at 1 mg/mL, stored at −20 °C, and protected from light. Calibration standards and QC samples were generated by serially diluting the gnetol stock into pooled blank murine plasma or hepatic homogenate. Stability was assessed under a range of storage and handling conditions. Stock solutions of gnetol and the IS were evaluated after storage on ice (0–4 °C) and at −20 °C. Plasma stability of gnetol was examined under short-term conditions (on ice for 6 h), long-term storage (−80 °C for 7 days), three freeze–thaw cycles, and post-preparative holding (autosampler at 4 °C for 24 h). Because stability is difficult to determine directly in intact tissues, only short-term stability in liver homogenate (on ice for 6 h) was assessed; for processed tissue extracts, post-preparative stability was likewise evaluated using liver homogenate as a representative matrix. Stability was considered acceptable when 85–115% of the initial gnetol concentration remained.

[4] = in vitro; type: in vitro ADME; details: mouse
Protocol: as §1, with “Stability” for “Stock solutions of gnetol and resveratrol-^13C6 (IS) were prepared in DMSO at 1 mg/mL, stored at −20 °C, and protected from light. Calibration standards and QC samples were generated by serially diluting the gnetol stock into pooled blank murine plasma or hepatic homogenate. Stability”

Structure (SMILES) | Inhibition of SARS-CoV-2 main protease [1] | Tyrosinase inhibition [2] | remaining at 24 h, 1 mg/mL [3] | remaining at 168 h, 1 mg/mL [3] | remaining at 15 ng/mL ([4]; plasma) | remaining at 1200 ng/mL ([4]; plasma) | remaining at 6 h, 15 ng/mL ([4]; plasma) | remaining at 6 h, 1200 ng/mL ([4]; plasma) | remaining at 24 h, 15 ng/mL ([4]; plasma) | remaining at 24 h, 1200 ng/mL ([4]; plasma) | remaining at 168 h, 15 ng/mL ([4]; plasma) | remaining at 168 h, 1200 ng/mL ([4]; plasma) | remaining at 6 h, 15 ng/mL ([4]; tissue homogenate) | remaining at 6 h, 1200 ng/mL ([4]; tissue homogenate) | remaining at 24 h, 15 ng/mL ([4]; tissue homogenate) | remaining at 24 h, 1200 ng/mL ([4]; tissue homogenate) | remaining at 24 h, 1 mg/mL ([3]; stock solution in DMSO, stock solution 1.00 mg/mL, stored at ice-cold temperature for 24 h, n = 6, read-out: Remaining (%, Mean ± SD)) | remaining at 168 h, 1 mg/mL ([3]; stock solution in DMSO, stock solution 1.00 mg/mL, stored at −20 °C for 7 days, n = 6, read-out: Remaining (%, Mean ± SD))
Oc1cc(O)cc(/C=C/c2c(O)cccc2O)c1 [Gnetol, trans-2,3′,5′,6-tetrahydroxystilbene] | inhibits the SARS-CoV-2 main protease | potent tyrosinase inhibitor | 101 ± 5.3% | 98.2 ± 3.9% | 103 ± 11.6% | 112 ± 2.2% | 100 ± 7.3% | 106 ± 1.8% | 94 ± 7.7% | 103 ± 7.6% | 97.2 ± 6.3% | 112 ± 2.5% | 96.1 ± 11.3% | 110 ± 4.4% | 104 ± 4.5% | 88.9 ± 6.4% |  | 
Oc1cc(O)cc(/C=C/[13c]2[13cH][13cH][13c](O)[13cH][13cH]2)c1 [Resveratrol-^13C6, trans-3,5,4′-trihydroxystilbene-^13C6, reference compound] |  |  |  |  |  |  |  |  |  |  |  |  |  |  |  |  | 98.2 ± 3.9% | 100 ± 3.6%
